Laboratory results taken from PMC5515969, “Effects of 31 FDA approved small-molecule kinase inhibitors on isolated rat liver mitochondria” (Archives of Toxicology, 2016).
Read-outs that look alike come from different tables or passages of the source.

Columns and labels:
[1] = 1 = DILI positive, 0 = negative; ref product labeling; cited from earlier work
[2] = system: isolated rat liver mitochondria; assay: Mitochondrial swelling (absorbance at 535 nm); assay type: biochemical; settings: difference in signal between KI and DMSO treated samples at the end of experiments; for Swelling 5XCmax: key: 0 indicates that the drug had no effects (negative)
[3] = therapeutic maximal blood concentration, ref product labeling, cited from earlier work
[4] = system: isolated rat liver mitochondria; assay: Mitochondrial oxygen consumption (glutamate/malate or succinate driven, state 4 and state 3); assay type: biochemical; settings: DMSO treated samples set as 1; for State 3 respiration driven by succinate at 10XCmax: key: 0 indicates that the drug had no effects (negative); for State 3 respiration driven by succinate at 1XCmax: key: 0 indicates that the drug had no effects (negative)
Summary of the method: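 Rat liver mitochondria (1 mg/ml protein) exposed 5 min to kinase inhibitors in 0.1% DMSO, then O2 consumption measured by Clark-type electrode with glutamate/malate or succinate (state 4), ADP added after 3 min (state 3). Rates normalized to 0.1% DMSO controls set to 1.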

RCC II = target: T1, RCC II (Rattus norvegicus, UniProt P21913+Q641Z9+Q6PCT8+Q920L2); assay: RCC II activity in submitochondrial particles; assay type: biochemical; set-up: key: activity relative to DMSO-treated controls (control set as 1 = 100%); settings: relative to DMSO treated samples
T1 construct: Submitochondrial particles were prepared by subjecting the intact mitochondria to three successive freeze–thaw cycles; from tissue; host or cells: rat liver mitochondria, used as submitochondrial particles
Summary of the method: (§1)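 Kinase inhibitors were preincubated 15 min with submitochondrial particles (1 mg/ml) before complex activities were measured. RCC I was the rotenone-sensitive portion (activity without minus with rotenone). RCC I/V was read at 340 nm and RCC II at 600 nm every 1 min for 6 min. RCC III and IV were read at 550 nm every 10 s for 2 min. Activities are normalized to DMSO controls set as 1.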

RCC III = RCC III activity in submitochondrial particles; assay type: biochemical, rat; set-up: key to RCC III at 100XCmax: activity relative to DMSO-treated controls (control set as 1 = 100%); settings: 100XCmax; relative to DMSO treated samples
Summary of the method: as §1

[5] = system: isolated rat liver mitochondria; assay: Mitochondrial inner membrane potential (MMP), Rhodamine 123; assay type: biochemical; settings: difference in signal between KI and DMSO treated samples at the end of experiments
Source text: Fig. 3 KI effects on mitochondrial inner membrane potential (MMP). […] In a, c, data are means and standard derivations from three separate experiments. *p < 0.05 as compared to DMSO-treated samples at the end of experiments. In b, data are means of two independent experiments

RCC V = RCC V activity in submitochondrial particles; assay type: biochemical, rat; settings: relative to DMSO treated samples; for RCC V at 5XCmax: key: 0 indicates that the drug had no effects (negative)
Summary of the method: as §1

RCC I = RCC I activity in submitochondrial particles; assay type: biochemical, rat; set-up: key to RCC I at 10XCmax / RCC I at 100XCmax / RCC I at 50XCmax / RCC I at 30XCmax / RCC I at 20XCmax: activity relative to DMSO-treated controls (control set as 1 = 100%); settings: 10XCmax; relative to DMSO treated samples
Summary of the method: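 Abs 340 nm (I/V) or 600 nm (II), 1-min reads × 6 min; 550 nm (III, IV), 10-s reads × 2 min. RCC I = rotenone-free minus rotenone rate. DMSO control = 1.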

RCC IV = RCC IV activity in submitochondrial particles; assay type: biochemical, rat; set-up: key to RCC IV at 50XCmax / RCC IV at 100XCmax: activity relative to DMSO-treated controls (control set as 1 = 100%); settings: 50XCmax; relative to DMSO treated samples; in %
Summary of the method: as §1

T1 sequence (Q920L2 35-656): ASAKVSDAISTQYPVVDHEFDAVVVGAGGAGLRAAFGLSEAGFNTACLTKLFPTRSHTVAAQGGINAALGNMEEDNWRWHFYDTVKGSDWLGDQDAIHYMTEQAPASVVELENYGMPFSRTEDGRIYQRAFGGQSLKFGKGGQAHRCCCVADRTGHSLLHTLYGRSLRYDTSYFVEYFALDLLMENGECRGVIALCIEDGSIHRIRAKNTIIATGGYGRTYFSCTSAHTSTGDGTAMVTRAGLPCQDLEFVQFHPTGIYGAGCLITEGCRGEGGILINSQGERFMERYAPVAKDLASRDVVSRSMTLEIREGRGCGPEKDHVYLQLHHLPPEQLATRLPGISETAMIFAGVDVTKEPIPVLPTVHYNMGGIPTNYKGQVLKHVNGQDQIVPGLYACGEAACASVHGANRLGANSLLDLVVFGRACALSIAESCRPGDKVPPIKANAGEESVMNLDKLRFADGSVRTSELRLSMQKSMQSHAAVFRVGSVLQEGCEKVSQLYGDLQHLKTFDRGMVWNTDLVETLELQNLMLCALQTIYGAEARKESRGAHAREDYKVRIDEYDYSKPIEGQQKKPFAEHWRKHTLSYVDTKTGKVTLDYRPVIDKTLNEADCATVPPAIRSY
T1 sequence (P21913 31-282): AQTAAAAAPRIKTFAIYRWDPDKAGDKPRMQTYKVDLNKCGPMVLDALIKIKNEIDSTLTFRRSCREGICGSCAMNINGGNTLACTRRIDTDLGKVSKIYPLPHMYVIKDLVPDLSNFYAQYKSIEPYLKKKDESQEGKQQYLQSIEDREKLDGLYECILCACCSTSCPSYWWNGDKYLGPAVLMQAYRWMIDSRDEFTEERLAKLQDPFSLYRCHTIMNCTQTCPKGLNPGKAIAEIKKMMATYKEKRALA
T1 sequence (Q641Z9 1-169): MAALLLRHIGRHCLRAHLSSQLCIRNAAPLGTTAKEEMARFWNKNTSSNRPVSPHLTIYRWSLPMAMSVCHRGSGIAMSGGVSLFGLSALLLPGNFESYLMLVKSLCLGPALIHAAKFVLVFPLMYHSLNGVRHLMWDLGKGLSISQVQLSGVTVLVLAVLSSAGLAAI
T1 sequence (Q6PCT8 57-159): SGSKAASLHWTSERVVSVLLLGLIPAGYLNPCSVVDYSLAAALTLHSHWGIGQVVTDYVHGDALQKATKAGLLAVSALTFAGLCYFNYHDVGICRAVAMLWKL

SMILES: N#CC[C@H](C1CCCC1)n1cc(-c2ncnc3[nH]ccc23)cn1 [ruxolitinib phosphate]
- DILI potential (based on labeling) [1]: 0
- Swelling 1XCmax ([2]; 1XCmax): 0
- Swelling 2.5XCmax ([2]; 2.5XCmax): 0
- Swelling 5XCmax ([2]; 5XCmax): 0
- Swelling 10XCmax ([2]; 10XCmax): 0
- Swelling 20XCmax ([2]; 20XCmax): 0
- Swelling 30XCmax ([2]; 30XCmax): 0
- Swelling 50XCmax ([2]; 50XCmax): 0
- Swelling 100XCmax ([2]; 100XCmax): 0
- Cmax ([3]; read-out: Cmax at µM): 1.2 µM
- Cmax [3]: 368 ng/mL
- State 3 respiration driven by glutamate/malate at 1XCmax ([4]; 1XCmax): 0
- State 3 respiration driven by succinate at 1XCmax ([4]; 1XCmax): 0
- State 4 respiration driven by glutamate/malate at 1XCmax ([4]; 1XCmax): 0
- State 4 respiration driven by succinate at 1XCmax ([4]; 1XCmax): 0
- State 3 respiration driven by glutamate/malate at 2.5XCmax ([4]; 2.5XCmax): 0
- State 3 respiration driven by succinate at 2.5XCmax ([4]; 2.5XCmax): 0
- State 4 respiration driven by glutamate/malate at 2.5XCmax ([4]; 2.5XCmax): 0
- State 4 respiration driven by succinate at 2.5XCmax ([4]; 2.5XCmax): 0
- State 3 respiration driven by glutamate/malate at 5XCmax ([4]; 5XCmax): 0
- State 3 respiration driven by succinate at 5XCmax ([4]; 5XCmax): 0
- State 4 respiration driven by glutamate/malate at 5XCmax ([4]; 5XCmax): 0
- State 4 respiration driven by succinate at 5XCmax ([4]; 5XCmax): 0
- State 3 respiration driven by glutamate/malate at 10XCmax ([4]; 10XCmax): 0
- State 3 respiration driven by succinate at 10XCmax ([4]; 10XCmax): 0
- State 4 respiration driven by glutamate/malate at 10XCmax ([4]; 10XCmax): 0
- State 4 respiration driven by succinate at 10XCmax ([4]; 10XCmax): 0
- State 3 respiration driven by glutamate/malate at 20XCmax ([4]; 20XCmax): 0.62±0.05
- State 3 respiration driven by succinate at 20XCmax ([4]; 20XCmax): 0
- State 4 respiration driven by glutamate/malate at 20XCmax ([4]; 20XCmax): 0
- State 4 respiration driven by succinate at 20XCmax ([4]; 20XCmax): 0
- State 3 respiration driven by glutamate/malate at 30XCmax ([4]; 30XCmax): 0.54±0.02
- State 3 respiration driven by succinate at 30XCmax ([4]; 30XCmax): 0
- State 4 respiration driven by glutamate/malate at 30XCmax ([4]; 30XCmax): 0
- State 4 respiration driven by succinate at 30XCmax ([4]; 30XCmax): 0
- State 3 respiration driven by glutamate/malate at 50XCmax ([4]; 50XCmax): 0.49±0.06
- State 3 respiration driven by succinate at 50XCmax ([4]; 50XCmax): 0
- State 4 respiration driven by glutamate/malate at 50XCmax ([4]; 50XCmax): 0
- State 4 respiration driven by succinate at 50XCmax ([4]; 50XCmax): 0
- State 3 respiration driven by glutamate/malate at 100XCmax ([4]; 100XCmax): 0.28±0.06
- State 3 respiration driven by succinate at 100XCmax ([4]; 100XCmax): 0
- State 4 respiration driven by glutamate/malate at 100XCmax ([4]; 100XCmax): 0.71±0.08
- State 4 respiration driven by succinate at 100XCmax ([4]; 100XCmax): 0
- RCC II at 1.0XCmax (RCC II; 1.0XCmax): 0
- RCC II at 2.5XCmax (RCC II; 2.5XCmax): 0
- RCC II at 5XCmax (RCC II; 5XCmax): 0
- RCC II at 10XCmax (RCC II; 10XCmax): 0
- RCC II at 20XCmax (RCC II; 20XCmax): 0
- RCC II at 30XCmax (RCC II; 30XCmax): 0
- RCC II at 50XCmax (RCC II; 50XCmax): 0
- RCC II at 100XCmax (RCC II; 100XCmax): 0
- RCC III at 100XCmax (RCC III): 0
- MMP measured by Rhodamine 123 at 1XCmax ([5]; 1XCmax): 0
- MMP measured by Rhodamine 123 at 2.5XCmax ([5]; 2.5XCmax): 0
- MMP measured by Rhodamine 123 at 5XCmax ([5]; 5XCmax): 0
- MMP measured by Rhodamine 123 at 10XCmax ([5]; 10XCmax): 0
- MMP measured by Rhodamine 123 at 20XCmax ([5]; 20XCmax): 0
- MMP measured by Rhodamine 123 at 30XCmax ([5]; 30XCmax): 0
- MMP measured by Rhodamine 123 at 50XCmax ([5]; 50XCmax): 0
- MMP measured by Rhodamine 123 at 100XCmax ([5]; 100XCmax): 0
- RCC V at 5XCmax (RCC V; 5XCmax): 0
- RCC V at 50XCmax (RCC V; 50XCmax): 0
- RCC I at 10XCmax (RCC I): 0
- RCC IV at 50XCmax (RCC IV): 0
